According to PubChem BioAssay (NCI):
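The compound was tested at five concentrations on cells cultured in 96-well plates, with a 48-hour exposure period. GI50 marks 50% less growth. The concentration for full growth arrest is given as TGI.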

Key:
Assay in all cases: NCI anticancer screen, dose series, 48 h
SK-MEL-2 melanoma = system: SK-MEL-2 melanoma
HL-60(TB) leukemia = system: HL-60(TB) leukemia
KM12 colon = system: KM12 colon
PC-3 prostate = system: PC-3 prostate
SNB-19 CNS = system: SNB-19 CNS
HOP-62 NSCLC = system: HOP-62 NSCLC
HCT-116 colon = system: HCT-116 colon
U251 CNS = system: U251 CNS
NCI-H226 lung = system: NCI-H226 lung
SK-MEL-5 melanoma = system: SK-MEL-5 melanoma

Row | Compound | GI50 (SK-MEL-2 melanoma) [µM] | TGI (SK-MEL-2 melanoma) [µM] | GI50 (HL-60(TB) leukemia) [µM] | TGI (HL-60(TB) leukemia) [µM] | GI50 (KM12 colon) [µM] | TGI (KM12 colon) [µM] | GI50 (PC-3 prostate) [µM] | TGI (PC-3 prostate) [µM] | GI50 (SNB-19 CNS) [µM] | TGI (SNB-19 CNS) [µM] | GI50 (HOP-62 NSCLC) [µM] | TGI (HOP-62 NSCLC) [µM] | GI50 (HCT-116 colon) [µM] | TGI (HCT-116 colon) [µM] | GI50 (U251 CNS) [µM] | TGI (U251 CNS) [µM] | GI50 (NCI-H226 lung) [µM] | TGI (NCI-H226 lung) [µM] | GI50 (SK-MEL-5 melanoma) [µM] | TGI (SK-MEL-5 melanoma) [µM]
1 | C[C@H]1C[C@@H](n2c(Nc3ccc(OC(F)(F)F)cc3)nc3cc(CCC(=O)O)ccc32)CC(C)(C)C1 | 15 | 34.6 | 10.3 | 29.1 | 10.5 | 24 | 11.9 | 27.9 | 12.1 | 31.2 | 20.6 | 39.4 | 5.04 | 18.5 | 11.2 | 28.1 | 17.8 | 42.4 | 5.38 | 17.9
2 | CCCC(=O)OCC1OC(n2cc(F)c(=O)[nH]c2=O)CC1OC(=O)CCC (centres undefined) | – | > 10 | – | > 10 | – | > 10 | – | > 10 | – | > 10 | – | > 10 | – | > 10 | – | > 10 | – | > 10 | – | 2.39
3 | O=C(CCN1CCCC1)Nc1ccc2c(Nc3ccc(F)cc3)c3ccccc3nc2c1 | 1.85 | 3.64 | 1.51 | 3.75 | 1.48 | 4.11 | 1.34 | 3.97 | 0.836 | 3.53 | 0.864 | 3.7 | 0.906 | 2.58 | 1.17 | 3.03 | 1.41 | 3.21 | 1.53 | 2.88
4 | COc1ccc2[nH]c3c(C)c4c(c(C)c3c2c1)CN(C)C=C4 | – | 9.8 | – | 52.3 | – | 10.6 | – | 81.3 | – | 3.66 | – | 3.53 | – | 22.1 | – | 1.45 | – | 1.36 | – | 6.75
5 | Nc1[nH]nc(Nc2ccccc2)c1-c1nc2ccccc2s1 | 2.77 | 8.9 | 2.61 | 7 | 1.61 | 3.6 | 1.58 | 3.39 | 2.08 | 4.56 | 2.08 | 5.87 | 1.29 | 2.71 | 2.26 | 5.5 | 3.71 | 17 | 4.66 | 15.8
6 | O=C1OC(c2ccc([N+](=O)[O-])cc2)=N/C1=C\c1ccc(Cl)cc1 | – | > 100 | – | > 100 | – | > 100 | – | > 100 | – | > 100 | – | > 100 | – | > 100 | – | > 100 | – | > 100 | – | > 100
7 | COc1ccc(Cn2cc3c(c2-c2ccccc2)CCc2cnoc2-3)cc1 | 2.79 | > 100 | 0.133 | 0.389 | 0.103 | 2.97 | 0.096 | > 100 | 0.351 | > 100 | 0.279 | > 48.5 | 0.0904 | – | 0.264 | > 100 | 0.476 | > 100 | 0.0479 | 0.504
8 | COc1ccc(/C=C\c2cc(OC)c(OC)c(OC)c2)cc1NC(=O)/C=C/c1ccc(OC)c(OC)c1 | 5.51 | > 100 | 2.54 | 8.85 | 3.91 | > 100 | 3.9 | > 100 | 4.15 | > 100 | 5.42 | > 100 | 4.35 | > 100 | 3.53 | > 100 | 4.03 | > 100 | 2.89 | > 100
9 | Cc1[nH]n(-c2nc(-c3ccccc3)cc(=O)[nH]2)c(=O)c1CCO | – | > 100 | – | > 100 | – | > 100 | – | > 100 | – | > 100 | – | > 100 | – | > 100 | – | > 100 | – | > 100 | – | > 100
10 | COc1ccc(-c2nc(NC(=O)CS(=O)(=O)c3ccc(F)cc3)sc2C)cc1 | 15.2 | 34.1 | 16.5 | 66 | 14.6 | 61 | 21.1 | 94.7 | 33.4 | > 100 | 22.4 | 87.1 | 17.5 | 38.7 | 19.2 | 51.3 | 23.8 | 87.8 | 12.8 | 25.9
11 | CN(c1cccc(C(=O)O)c1)c1cc(O/N=[N+](\[O-])N(C)C)c([N+](=O)[O-])cc1[N+](=O)[O-] | > 100 | > 100 | 72.2 | > 100 | > 100 | > 100 | > 100 | > 100 | > 100 | > 100 | 46.8 | > 100 | > 100 | > 100 | > 100 | > 100 | > 100 | > 100 | > 100 | > 100
12 | COc1ccc(-n2nc(C)c3c(Nc4ccc(NC(=O)Nc5cccc(C(F)(F)F)c5)cc4)ncnc32)cc1 | 2.04 | 4.01 | 2.31 | 5.51 | 1.63 | 3.76 | 1.49 | 3.9 | 1.95 | 4.65 | 1.73 | 3.45 | 1.62 | 3.46 | 1.08 | 2.35 | 1.84 | 4.2 | 1.75 | 3.21
13 | COc1ccc(C2=C(c3ccc(OC)cc3)C(=O)OC2)cc1 | 1.48 | > 48.6 | 0.525 | 4.58 | 0.555 | > 37.7 | 5.19 | 44.1 | 2.34 | > 100 | 2.25 | 24.6 | 1.97 | 11.8 | 0.421 | 3.46 | 3.2 | 31.4 | 0.472 | 5.9
14 | N[C@H]1CCC[C@@H](O)C1O (some centres undefined) | – | > 100 | – | > 100 | – | > 100 | – | > 100 | – | > 100 | – | > 100 | – | > 100 | – | > 100 | – | > 100 | – | > 100
